Measurements: US9527832B2, “Substituted condensed pyrimidine compounds” (GRÜNENTHAL GMBH, priority 2013, dated 2016)

Assays:
[1] = biological target: T1, human PDE4B1 (Homo sapiens, UniProt Q07343); assay: cAMP HTRF assay to determine the activity of hPDE4B1; assay type: biochemical; details: for inhibition at 1 µM: Percentage inhibition of PDE4B at 1 μM test concentration; for IC50: dose response measurements with eight concentrations, reported as ranges, read-out: IC50
T1 construct: host or cells: Sf9 cells
T1 sequence (Q07343 whole entry): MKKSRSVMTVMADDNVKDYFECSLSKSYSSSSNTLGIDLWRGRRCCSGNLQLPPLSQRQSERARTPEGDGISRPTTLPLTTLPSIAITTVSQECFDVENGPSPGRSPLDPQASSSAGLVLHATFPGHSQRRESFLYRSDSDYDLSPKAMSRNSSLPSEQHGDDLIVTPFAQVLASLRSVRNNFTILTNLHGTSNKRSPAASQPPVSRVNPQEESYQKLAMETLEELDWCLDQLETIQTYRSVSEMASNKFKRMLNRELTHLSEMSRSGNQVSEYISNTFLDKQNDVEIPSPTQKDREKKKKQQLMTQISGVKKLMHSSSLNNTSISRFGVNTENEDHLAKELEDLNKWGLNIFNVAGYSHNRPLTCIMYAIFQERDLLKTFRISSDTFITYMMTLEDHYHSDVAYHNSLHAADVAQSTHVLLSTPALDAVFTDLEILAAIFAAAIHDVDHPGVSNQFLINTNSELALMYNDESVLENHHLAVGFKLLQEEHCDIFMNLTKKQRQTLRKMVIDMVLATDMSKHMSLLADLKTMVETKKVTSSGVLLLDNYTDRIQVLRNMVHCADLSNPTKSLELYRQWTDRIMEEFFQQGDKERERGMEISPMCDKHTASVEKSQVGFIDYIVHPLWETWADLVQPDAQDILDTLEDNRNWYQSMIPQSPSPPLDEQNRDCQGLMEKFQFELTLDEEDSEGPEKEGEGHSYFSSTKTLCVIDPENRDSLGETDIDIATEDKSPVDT
Summary of the method: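 Sf9-expressed recombinant human PDE4B1 (4.8 U) in Tris-HCl/MgCl2/DTT/Tween 20 buffer pH 7.8, with cAMP at 40 nM final, 30 min at room temperature. Reaction stopped with IBMX 1 mM; remaining cAMP detected by HTRF (665/620 nm ratio). IC50 from eight-point dose-response, n=2.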

inhibition at 1 µM [1] [%]	IC50 [1] [nM]	melting point [°C]	SMILES
96	< 100	192 to 195	COc1ccc(-c2nc3c(c(N4CCc5cc(CC(=O)O)ccc54)n2)CS(=O)(=O)C3)cc1F [Compound No. 1-10, 2-(1-(2-(3-Fluoro-4-methoxy-phenyl)-6,6-dioxo-5,7-dihydro-thieno[3,4-d]pyrimidin-4-yl)-2,3-dihydro-1H-indol-5-yl)acetic acid]
100	< 100	245 to 247	COc1ccc(-c2nc3c(c(N4CCc5cc(CC(=O)O)ccc54)n2)CS(=O)(=O)C3)cc1Cl [Compound No. 1-11, 2-(1-(2-(3-Chloro-4-methoxy-phenyl)-6,6-dioxo-5,7-dihydro-thieno[3,4-d]pyrimidin-4-yl)-2,3-dihydro-1H-indol-5-yl)acetic acid]
108	< 100	239 to 243	COc1ccc(-c2nc3c(c(N4CCc5cc(CC(=O)O)ccc54)n2)CS(=O)(=O)C3)cc1 [Compound No. 1-12, 2-(1-(2-(4-Methoxyphenyl)-6,6-dioxo-5,7-dihydro-thieno[3,4-d]pyrimidin-4-yl)-2,3-dihydro-1H-indol-5-yl)acetic acid]
–	–	225 to 232	COc1ccc(-c2nc3c(c(N4CCc5c(OCC(=O)N(C)C)cccc54)n2)CS(=O)(=O)C3)cc1 [Compound No. 2-2, 2-((1-(2-(4-Methoxyphenyl)-6,6-dioxo-5,7-dihydro-thieno[3,4-d]pyrimidin-4-yl)-2,3-dihydro-1H-indol-4-yl)oxy)-N,N-dimethyl-acetamide]
–	–	237 to 245	CN(C)C(=O)COc1cccc2c1CCN2c1nc(-c2cccc(F)c2)nc2c1CS(=O)(=O)C2 [Compound No. 2-4, 2-((1-(2-(3-Fluorophenyl)-6,6-dioxo-5,7-dihydro-thieno[3,4-d]pyrimidin-4-yl)-2,3-dihydro-1H-indol-4-yl)oxy)-N,N-dimethyl-acetamide]
–	–	222 to 226	CN(C)C(=O)COc1cccc2c1CCN2c1nc(-c2cccc(Cl)c2)nc2c1CS(=O)(=O)C2 [Compound No. 2-6, 2-((1-(2-(3-Chlorophenyl)-6,6-dioxo-5,7-dihydro-thieno[3,4-d]pyrimidin-4-yl)-2,3-dihydro-1H-indol-4-yl)oxy)-N,N-dimethyl-acetamide]
–	–	231 to 233	COc1ccc(-c2nc3c(c(N4CCc5c(OCC(=O)N(C)C)cccc54)n2)CS(=O)(=O)C3)cc1F [Compound No. 2-10, 2-((1-(2-(3-Fluoro-4-methoxy-phenyl)-6,6-dioxo-5,7-dihydro-thieno[3,4-d]pyrimidin-4-yl)-2,3-dihydro-1H-indol-4-yl)oxy)-N,N-dimethyl-acetamide]
–	–	212 to 217	CN(C)C(=O)COc1cccc2c1CCN2c1nc(-c2ccc(F)c(F)c2)nc2c1CS(=O)(=O)C2 [Compound No. 2-12, 2-((1-(2-(3,4-Difluoro-phenyl)-6,6-dioxo-5,7-dihydro-thieno[3,4-d]pyrimidin-4-yl)-2,3-dihydro-1H-indol-4-yl)oxy)-N,N-dimethyl-acetamide]
61	100 to 1000	209 to 212	O=C(COc1ccc2c(c1)N(c1nc(-c3ccc(Cl)s3)nc3c1CCC3)CC2)N1CCCC1 [Compound No. 2-142, 2-((1-(2-(5-Chlorothiophen-2-yl)-6,7-dihydro-5H-cyclopenta[d]pyrimidin-4-yl)indolin-6-yl)oxy)-1-(pyrrolidin-1-yl)ethanone]
103	< 100	–	NC(=O)Cc1ccc2c(c1)CCN2c1nc(-c2ccc(Cl)s2)nc2c1CS(=O)(=O)C2 [Compound No. 3-6, 2-(1-(2-(5-Chlorothiophen-2-yl)-6,6-dioxido-5,7-dihydrothieno[3,4-d]pyrimidin-4-yl)indolin-5-yl)acetamide]
48	–	–	CN(C)CCOc1ccc2c(c1)N(c1nc(-c3ccc(Cl)s3)nc3c1CCC3)CC2 [Compound No. 3-7, 2-((1-(2-(5-Chlorothiophen-2-yl)-6,7-dihydro-5H-cyclopenta[d]-pyrimidin-4-yl)indolin-6-yl)oxy)-N,N-dimethylethanamine]
32	–	–	CN(C)C(=O)Cc1ccc2c(c1)CCN2c1nc(-c2ccc(Cl)s2)nc2c1CS(=O)(=O)C2 [Compound No. 3-8, 2-(1-(2-(5-Chlorothiophen-2-yl)-6,6-dioxido-5,7-dihydrothieno[3,4-d]pyrimidin-4-yl)indolin-5-yl)-N,N-dimethylacetamide]
